pIC50: −log10 of the molar value.
Columns and labels:
[1] = target: CRBN proteins (Homo sapiens (Human), UniProt Q96SW2); test: CRBN affinity test; type: binding; details: purified CRBN proteins expressed in E. coli
Description: First, CRBN proteins were expressed in E. coli and purified, and then the purified CRBN proteins were dissolved in a buffer solution (PBS). […] After the mixture was sufficiently mixed and reacted, the binding strength at each concentration was measured to collect data, and a binding curve was created therefrom (see FIG. 13), and the KD (equilibrium dissociation constant) values were derived therefrom (see Table 9 and FIG. 14).

[2] = tested on: Mia-Paca-2; test: Dose response curve, cell survival, 48 hours, Mia-Paca-2; type: cell-based; details: Homo sapiens, Pancreatic Carcinoma, read-out: IC50 of AST-DT-218, Mia-Paca-2
Description: (§1) A DRC was created to determine whether AST-DT-218 is effective in killing various cancer cells. First, hepatoma cell lines (Huh7 and Hep3B), non-small cell lung cancer cell lines (NCI-H460 and NCI-H1299), pancreatic cancer cell lines (PANC-1 and Mia-Paca-2), rectal cancer cell lines (HT29 and HCT116), a gastric adenocarcinoma cell line (AGS), a malignant melanoma cell line (A375), and an adenocarcinoma cell line (MDA-MB-231) were prepared. Each cell line was cultured in a flask, and the cells which reached the logarithmic growth phase were prepared, washed with PBS, harvested with trypsin, centrifuged to adjust the cell density, and then resuspended in an appropriate culture medium, and plated into 96-well plates. After culturing until the cells attached to the plates and stabilized, AST-DT-218 and controls (lenalidomide and pomalidomide) were prepared and diluted to various concentrations (10-point by diluting by half from the highest concentration of 50 μM). […] After completion of the culture, cell survival was assessed using a cell counting method through cell nuclear staining. Data were collected by measuring cell survival at each concentration, and then DRC was created (see FIGS. 5 to 12) and IC50 values were calculated (see Table 8).

[3] = tested on: Huh7; test: Dose response curve, cell survival, 48 hours, Huh7; type: cell-based; details: Homo sapiens, Huh-7, Hepatocellular Carcinoma, read-out: IC50 of AST-DT-218, Huh7
Description: as §1

[4] = tested on: PANC-1; test: Dose response curve, cell survival, 48 hours, PANC-1; type: cell-based; details: Homo sapiens, Pancreatic Carcinoma, read-out: IC50 of AST-DT-218, PANC-1
Description: as §1

[5] = tested on: Hep3B; test: HCC cell survival by cell nuclear staining, 24 hours, Hep3B; type: cell-based; details: Homo sapiens
Description: (§2) An indication expansion experiment was performed to evaluate the potential of AST-DT-218 for treating hepatocellular carcinoma (HCC). First, HCC cell lines (Huh7, Hep3B, SNU449, and SNU475) were prepared, and AST-DT-218 and Sorafenib were at the highest concentration of 50 μM, serially diluted by half starting therefrom, thereby preparing 10 concentrations (50 μM, 25 μM, 12.5 μM, etc.). HCC cell lines (Huh7, Hep3B, SNU449, SNU475) were seeded into 96-well plates, in which each well was treated with AST-DT-218 and Sorafenib solutions, and the cells were cultured in an incubator for 24 hours. Then, the cell survival at each concentration was evaluated by measuring the cell count using cell nuclear staining, and a concentration-response curve of cell survival was created based on the data, and the IC50 value was derived.

[6] = Single dose toxicity study; type: in vivo; details: rats
Description: The toxicity of AST-DT-218 at a single dose was evaluated. First, healthy adult male and female rats were prepared and then fasted for 12 hours before the experiment. Solutions were prepared for each dose group (0 mg/kg, 500 mg/kg, 1,000 mg/kg, and 2,000 mg/kg), and the final solution volume was set at 40 mL/kg.
For […] to 15 days after administration, clinical symptoms (e.g., colored stool, hairloss, etc.), changes in weight, changes in food consumption, and changes in organ weight were observed, and ophthalmic examinations were performed and autopsies were performed.

[7] = tested on: A375; test: Dose response curve, cell survival, 48 hours, A375; type: cell-based; details: Homo sapiens, A-375, Malignant Melanoma, read-out: IC50 of AST-DT-218, A375
Description: as §1

[8] = tested on: NCI-H1299; test: Dose response curve, cell survival, 48 hours, NCI-H1299; type: cell-based; details: Homo sapiens, Non-Small Cell Lung Cancer, read-out: IC50 of AST-DT-218, NCI-H1299
Description: as §1

[9] = tested on: TA100 strain
Description: (§3) First, TA98 and TA 100 strains, which detect frameshift mutations and point mutations, respectively, were cultured. Then, AST-DT-218 was dissolved in a solvent and diluted to various concentrations (20.5 μg/mL, 61.7 μg/mL 185.1 μg/mL, […], 1666.6 μg/mL, and 5000 μg/mL) to prepare an […] (a metabolic activation system; concentration: 30%) including liver enzyme extracts and supplements. Into a histidine-deficient medium at different concentrations of AST-DT-218, (i) the TA98 strain was inoculated without the […] (TA98−S9), (ii) the TA98 strain was inoculated by mixing it with the […] (TA98+S9), (iii) the TA100 strain was inoculated without the […] (TA100−S9), and (iv) the TA100 strain was inoculated by mixing it with the S9 mixture (TA100+S9). As a solvent control, which is a negative control, only the solvent was inoculated into a histidine-deficient medium, and only a pure solvent was used in the absence of any compound. […] After culturing for 48 to 72 hours in each medium, the number of colonies generated was counted to calculate the mutation rate, and the mutagenic effect was compared depending on the presence or absence of the S9 mixture to analyze the effect on metabolic activation.

[10] = tested on: TA98 strain
Description: as §3

[11] = tested on: AGS; test: Dose response curve, cell survival, 48 hours, AGS; type: cell-based; details: Homo sapiens, Gastric Adenocarcinoma, read-out: IC50 of AST-DT-218, AGS
Description: as §1

[12] = target: T1, hERG channel (Homo sapiens (Human), UniProt Q12809); test: hERG-related cardiotoxicity test using automated patch clamp; type: cell-based; details: hERG channel-expressing CHO cell line
Description: In order to evaluate the inhibitory effect of AST-DT-218 on the hERG channel and determine its potential to induce cardiotoxicity, a hERG-related cardiotoxicity test using an automated patch clamp was performed. First, a hERG channel-expressing cell line (CHO) was cultured, and AST-DT-218 was dissolved in a solvent (DMSO) and diluted to a concentration (1 μM). Cells were mounted on a patch-clamp device, and the electrical activity of hERG channels was recorded by measuring voltage-dependent currents. The inhibitory effect was calculated as the current reduction ratio, and the IC50 value was derived by constructing a concentration-response curve.

[13] = tested on: SNU449; test: HCC cell survival by cell nuclear staining, 24 hours, SNU449; type: cell-based; details: Homo sapiens, SNU-449
Description: as §2

[14] = tested on: Hep3B; test: Dose response curve, cell survival, 48 hours, Hep3B; type: cell-based; details: Homo sapiens, Hepatocellular Carcinoma, read-out: IC50 of AST-DT-218, Hep3B
Description: as §1

[15] = tested on: Huh7; test: HCC cell survival by cell nuclear staining, 24 hours, Huh7; type: cell-based; details: Homo sapiens, Huh-7
Description: as §2

[16] = tested on: HCT116; test: Dose response curve, cell survival, 48 hours, HCT116; type: cell-based; details: Homo sapiens, HCT-116, Colorectal Carcinoma, read-out: IC50 of AST-DT-218, HCT116
Description: as §1

[17] = tested on: MDA-MB-231; test: Dose response curve, cell survival, 48 hours, MDA-MB-231; type: cell-based; details: Homo sapiens, Adenocarcinoma, read-out: IC50 of AST-DT-218, MDA-MB-231
Description: as §1

[18] = target: T1, hERG channel; test: hERG ligand binding assay; details: membranes of hERG channel-expressing HEK293 cell line
Description: Additionally, a ligand binding assay was performed to measure the affinity of AST-DT-218 that binds to the hERG channel. First, a hERG channel-expressing cell line (HEK293) was cultured, and then the cells were centrifuged to extract the cell membrane, and membrane proteins were prepared using a cell lysis reagent. A labeled hERG ligand was prepared and AST-DT-218 was dissolved in a solvent (DMSO) and diluted to a concentration (1 μM). After dispensing the cell membrane proteins into a 96-well plate or appropriate experimental equipment, competitive binding experiments were performed by adding AST-DT-218 at various concentrations to each well and incubated for 1 to 2 hours. After completion of the binding, the unbound ligands were washed using a recovery solution to separate the same, the extent of ligand binding was measured using a radiation detection device or fluorescence reader, and the signal intensities were analyzed to calculate the ligand binding inhibition ratio. The degree of binding inhibition according to the concentration of AST-DT-218 was plotted to derive the IC50 value.

[19] = Maximum tolerated dose (MTD) test; type: in vivo; details: mice, daily injection day 1 to day 5, highest dose 20 mg/kg
Description: The in vivo maximum tolerated dose (MTD) of AST-DT-218 was evaluated to determine the highest dose at which AST-DT-218 could be safely administered to experimental animals. First, the compound AST-DT-218 and the preparation solvent to be used in the experiment were prepared. The solvent was a mixture of 5% Tween 80, 40% PEG400, 10% DMSO, and 45% DPBS, and AST-DT-218 was prepared according to each dose as shown in Table 6 below. Mice (n=5) to be used in the experiment were prepared and divided into five groups to perform the experiment. The control group was injected with only 0 mg/kg of the solvent, and the remaining groups were injected with the AST-DT-218 solution at 2.5 mg/kg, 5 mg/kg, 10 mg/kg, and 20 mg/kg, respectively, and the injection amount was set to 0.1 mL for a 20 g mouse.
From day 1 to day 5, the injections were administered at the same time daily, and the changes in weight and abnormal behaviors of the mice were observed and data were collected during the experiment.

[20] = tested on: NCI-H460; test: Dose response curve, cell survival, 48 hours, NCI-H460; type: cell-based; details: Homo sapiens, Non-Small Cell Lung Cancer, read-out: IC50 of AST-DT-218, NCI-H460
Description: as §1

[21] = tested on: HT29; test: Dose response curve, cell survival, 48 hours, HT29; type: cell-based; details: Homo sapiens, HT-29, Colorectal Carcinoma, read-out: IC50 of AST-DT-218, HT29
Description: as §1

[22] = tested on: SNU475; test: HCC cell survival by cell nuclear staining, 24 hours, SNU475; type: cell-based; details: Homo sapiens, SNU-475
Description: as §2

[23] = tested on: TA98 and TA100 strains; details: positive controls
Description: as §3

Sequence of CRBN proteins (Q96SW2 whole entry): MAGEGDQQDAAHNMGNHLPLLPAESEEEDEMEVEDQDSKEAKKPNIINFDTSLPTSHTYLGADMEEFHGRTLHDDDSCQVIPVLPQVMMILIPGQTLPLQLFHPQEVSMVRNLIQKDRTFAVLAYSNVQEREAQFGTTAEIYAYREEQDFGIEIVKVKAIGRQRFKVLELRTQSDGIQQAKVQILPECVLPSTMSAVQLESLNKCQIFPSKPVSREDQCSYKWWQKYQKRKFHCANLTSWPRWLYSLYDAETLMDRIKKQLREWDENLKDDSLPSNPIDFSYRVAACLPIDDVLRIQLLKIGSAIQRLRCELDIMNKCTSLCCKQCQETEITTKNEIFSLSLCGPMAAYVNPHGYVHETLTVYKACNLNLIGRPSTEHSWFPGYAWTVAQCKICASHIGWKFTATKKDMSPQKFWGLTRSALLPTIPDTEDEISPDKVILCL
T1 sequence (Q12809 whole entry): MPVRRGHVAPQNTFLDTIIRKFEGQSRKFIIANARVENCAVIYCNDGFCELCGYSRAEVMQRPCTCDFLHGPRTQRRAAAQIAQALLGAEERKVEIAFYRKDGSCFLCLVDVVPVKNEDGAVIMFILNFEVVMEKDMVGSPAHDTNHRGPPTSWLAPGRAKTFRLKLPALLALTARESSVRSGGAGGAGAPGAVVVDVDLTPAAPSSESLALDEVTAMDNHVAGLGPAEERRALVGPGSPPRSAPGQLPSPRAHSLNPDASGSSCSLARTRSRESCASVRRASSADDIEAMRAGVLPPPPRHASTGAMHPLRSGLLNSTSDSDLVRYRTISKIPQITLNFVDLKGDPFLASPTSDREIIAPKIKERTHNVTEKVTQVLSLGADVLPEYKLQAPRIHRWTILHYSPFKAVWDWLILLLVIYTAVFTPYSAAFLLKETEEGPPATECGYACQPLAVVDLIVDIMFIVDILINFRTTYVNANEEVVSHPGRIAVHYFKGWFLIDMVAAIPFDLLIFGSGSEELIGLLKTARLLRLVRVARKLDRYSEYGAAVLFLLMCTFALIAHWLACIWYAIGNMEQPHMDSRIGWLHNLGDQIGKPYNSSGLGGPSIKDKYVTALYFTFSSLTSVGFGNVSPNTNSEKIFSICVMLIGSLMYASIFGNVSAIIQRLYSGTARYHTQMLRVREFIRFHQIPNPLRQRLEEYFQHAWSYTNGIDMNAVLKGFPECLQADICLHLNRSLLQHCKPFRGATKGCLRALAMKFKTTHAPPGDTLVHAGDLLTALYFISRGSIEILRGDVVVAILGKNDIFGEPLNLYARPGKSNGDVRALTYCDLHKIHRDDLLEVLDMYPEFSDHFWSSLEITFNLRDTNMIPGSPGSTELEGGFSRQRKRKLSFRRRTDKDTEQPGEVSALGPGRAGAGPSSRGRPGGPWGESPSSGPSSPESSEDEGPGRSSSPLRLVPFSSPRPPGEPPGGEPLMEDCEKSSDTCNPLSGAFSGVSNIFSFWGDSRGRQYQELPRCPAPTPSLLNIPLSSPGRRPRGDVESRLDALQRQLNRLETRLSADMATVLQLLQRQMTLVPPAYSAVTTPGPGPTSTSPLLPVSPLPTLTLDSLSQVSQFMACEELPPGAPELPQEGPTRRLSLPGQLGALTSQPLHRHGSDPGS

In the case of `CCCC(C)Nc1cccc2c1C(=O)N(C1CCC(=O)NC1=O)C2=O` (stereo in doubt) [AST-DT-135, 2-(2,6-dioxopiperidin-3-yl)-4-(((S)-pentan-2-yl)amino)isoindoline-1,3-dione], the Kd [1] was 29 nM.

In the case of `COc1ccc([C@@H](C)Nc2cccc3c2C(=O)N(C2CCC(=O)NC2=O)C3=O)cc1` (stereo partly drawn) [AST-DT-218, 2-(2,6-dioxopiperidin-3-yl)-4-(((R)-1-(4-methoxyphenyl)ethyl)amino)isoindoline-1,3-dione], the pIC50 [2] was 6.53, the pIC50 [3] was 6.16 and the pIC50 [4] was 6.17. For the same molecule, the Kd [1] was 16 nM, the pIC50 [5] was 6.42 and the “changes in clinical symptoms, body weight, food consumption, ophthalmological examination, organ weights, and autopsies” value ([6]; single oral dose up to 2,000 mg/kg, 15 days observation) was “no toxicologically significant changes”. For the same molecule, the “Clinical Signs” value ([6]; single p.o. dose 500 mg/kg, all animals, day 2) was “colored stool”, the “Clinical Signs” value ([6]; single p.o. dose 1,000 mg/kg, all animals, day 2) was “colored stool” and the “Clinical Signs” value ([6]; single p.o. dose 2,000 mg/kg, all animals, day 2) was “colored stool”. For the same molecule, the “Clinical Signs” value ([6]; single p.o. dose 2,000 mg/kg, animal #19, day 14-15) was “loss of fur”, the “Clinical Signs” value ([6]; single p.o. dose 2,000 mg/kg, animal #40, day 3) was “colored stool” and the “Clinical Signs” value ([6]; single p.o. dose 2,000 mg/kg, animals #18 to #20, day 3) was “colored stool”. For the same molecule, the pIC50 [7] was 6.64, the pIC50 [8] was 6.41 and the “number of mutant colonies” value ([9]; TA100, regardless of presence or absence of S9 mixture) was “no significant increase”. The “Mutagenic Data Points w/ S9” value ([9]; TA100, test conc. 20.5-5,000 μg/mL, with S9) was “No”, the “Mutagenic Data Points w/o S9” value ([9]; TA100, test conc. 20.5-5,000 μg/mL, without S9) was “No” and the “number of mutant colonies” value ([10]; TA98, regardless of presence or absence of S9 mixture) was “no significant increase”. The “Mutagenic Data Points w/ S9” value ([10]; TA98, test conc. 20.5-5,000 μg/mL, with S9) was “No”, the “Mutagenic Data Points w/o S9” value ([10]; TA98, test conc. 20.5-5,000 μg/mL, without S9) was “No” and the pIC50 [11] was 6.60. For the same molecule, the “possibility of causing cardiotoxicity (hERG patch clamp)” value [12] was “low possibility of causing cardiotoxicity”, the pIC50 [13] was 6.81 and the pIC50 [14] was 6.05. For the same molecule, the pIC50 [15] was 6.12, the pIC50 [16] was 6.73 and the pIC50 [17] was 6.20. The “possibility of causing cardiotoxicity (hERG ligand binding)” value [18] was “low possibility of causing cardiotoxicity”, the “weight loss or abnormal behavior” value [19] was “no weight loss or abnormal behavior” and the pIC50 [20] was 6.62. The pIC50 [21] was 6.47 and the pIC50 [22] was 5.84.

`C[C@H](CO)Nc1cccc2c1C(=O)N(C1CCC(=O)NC1=O)C2=O` (stereo partly drawn) [AST-DT-220, 2-(2,6-dioxopiperidin-3-yl)-4-(((R)-1-hydroxypropan-2-yl)amino)isoindoline-1,3-dione] gave a Kd [1] of 52 nM.

With `Nc1ccc2cc3ccccc3cc2c1` [Example 2-AA, 2-aminoanthracene] the “number of mutant colonies” value [23] was “significant increase”.

In the case of `O=[N+]([O-])c1ccc2c(c1)Cc1ccccc1-2` [Example 2-NF, 2-nitrofluorene], the “number of mutant colonies” value [23] was “significant increase”.

`CNC(=O)c1cc(Oc2ccc(NC(=O)Nc3ccc(Cl)c(C(F)(F)F)c3)cc2)ccn1` [Sorafenib, reference compound] showed a pIC50 [5] of 5.25, a pIC50 [13] of 4.95 and a pIC50 [15] of 5.36.
